Experimental data published in publication PMC10250785, “Aromatic oligoesters as novel helix mimetic scaffolds” (Bioorganic & Medicinal Chemistry, 2023).

Columns and labels:
[1] = Aqueous stability of dimers in buffered pH solutions (TLC, LCMS/HPLC UV); format: physicochemical; conditions: r.t.; for remaining at 168 h, 5 mg/mL: bicarbonate buffer pH 12.5 / acetonitrile (1:1), pH 12.5 (bicarbonate) buffer, 50% MeCN: buffer, 5 mg/mL dimer, after 7 days, from HPLC UV traces
Experimental: Human serum pH is tightly regulated around 7.4, with intracellular pH controlled between pH 6.0–7.2, and gastric pH between 1.4–3.5.[37] […] Given the prevalence of ester linkages in pro-drug structures[38] and the facile hydrolysis of esters in aqueous media, the stability of our scaffold was a concern. We therefore investigated the stability of dimers 25 and 29 over extended periods of time in aqueous solution from pH2.5–12.5. To monitor dimer stability over time, 10 mM pH buffer solutions of: 2.5(acetate), 5.0(acetate), 7.4 (phosphate-buffered saline), 10.0 (bicarbonate), and 12.5 (bicarbonate) were selected, to obtain a pH range similar to those present within the human body. Since both dimers are insoluble in water, they were firstly dissolved in acetonitrile, before addition to the buffered solutions to form a 5 mg/mL dimer solution (50% MeCN: buffer). Degradation was monitored via TLC over time, and the final solution composition was determined by LCMS after 7 days (Fig 3 and Figure S3).
Fig. 3 Dimers 25 and 29 were incubated for 7 days in a range of buffered pH solutions and % dimer remaining measured by integration of UV peaks from an HPLC Diode array trace.
To pre-prepared 100 mM pH buffer solutions (1.00 mL), including pH 2.5, 5.0, 7.4, 10.0 and 12.5 (Table 2), was added the dimer (10 mg/mL in MeCN) at r.t, forming a final solution with dimer concentration 5 mg/mL. The mixture was stirred at r.t. for 7 days and monitored via TLC and LCMS (50% MeCN) to follow ester bond degradation.

A melting point of 67 to 68 °C was found for `C=CCOc1ccc(C(=O)OC)cc1O` [Compound 1, Methyl 4-(allyloxy)-3-hydroxybenzoate] in this work.
For `C=CCOc1ccc(C(=O)Oc2ccc(C(=O)OC)cc2OC(C)C)cc1OC(C)C` [Compound 25, 2-isopropoxy-4-(methoxycarbonyl)phenyl 4-(allyloxy)-3-isopropoxybenzoate], the remaining at 168 h, 5 mg/mL [1] was 6% and the “time before ester hydrolysis occurs” value ([1]; pH 12.5, 50% MeCN: buffer) was greater than 5 days.
A remaining at 168 h, 5 mg/mL [1] of 49% was found for `COC(=O)c1ccc(OC(=O)c2ccc(O)c(OC)c2)c(OC)c1` [Compound 29, 2-methyoxy-4-(methoxycarbonyl)phenyl 4-hydroxy-3-methoxybenzoate] in this work.
